According to US7314861B2, “Melanin-concentrating hormone analogs” (priority 2001, dated 2008):
Where a SMILES comes first, the peptide text is derived from it. Bridges are numbered along the chain shown (N, C = ends).

What was measured:
human MCH-2R = human MCH-2R (Homo sapiens, UniProt Q969V1); test: Radiolabeled MCH-R binding assay (SPA based), MCH-2R; details: MCH-2R IC50 (nM)
Method: Cell membranes were prepared on ice. Each T-75 flask was rinsed twice with 10 ml of Enzyme-free Cell Dissociation Buffer (Specialty Media, Lavallette, N.J.), and the cell monolayer was detached in an additional 10 ml of Enzyme-free Cell Dissociation Buffer by incubation at room temperature for 10 minutes. Dissociated cells were centrifuged (500×g for 10 minutes at 4° C.), resuspended in 5 ml homogenization buffer (10 mM Tris-HCl, pH 7.4, 0.01 mM Pefabloc, 10 μM phosphoramidon, 40 μg/ml bacitracin) and then homogenized using a glass homogenizer (10-15 strokes). The homogenate was centrifuged for 10 minutes (1,000×g at 4° C.). The resulting supernatant was then centrifuged at 38,700×g for 15 minutes at 4° C. Pelleted membranes were resuspended (passed through 25 gauge needle 5 times), snap-frozen on liquid nitrogen, and stored at −80° C. until use.
For the SPA-based assay, WGA-PVT beads (NEN Life Sciences Products) were resuspended in Dulbecco's PBS with calcium and magnesium (500 mg beads in 4 ml PBS). […] The suspension was mixed gently for 20 minutes, 12.3 ml of assay buffer and protease inhibitors were added (final concentration given): 2 μg/ml leupeptin, 10 μM phosphoramidon, 40 μg/ml bacitracin, 5 μg/ml aprotinin, 0.1 mM Pefabloc.
Coated beads were kept on ice until use. […] Binding reactions were allowed to proceed at room temperature for 3 hours. Quantitation was performed by scintillation counting (TopCount device).

human MCH-1R = human MCH-1R (Homo sapiens, UniProt Q99705); test: Aequorin bioluminescence functional assay, MCH-1R; details: for MCH-1R Activation %: % Activation at 10 μM, aequorin functional assay
human MCH-1R, sequence (Q99705 whole entry): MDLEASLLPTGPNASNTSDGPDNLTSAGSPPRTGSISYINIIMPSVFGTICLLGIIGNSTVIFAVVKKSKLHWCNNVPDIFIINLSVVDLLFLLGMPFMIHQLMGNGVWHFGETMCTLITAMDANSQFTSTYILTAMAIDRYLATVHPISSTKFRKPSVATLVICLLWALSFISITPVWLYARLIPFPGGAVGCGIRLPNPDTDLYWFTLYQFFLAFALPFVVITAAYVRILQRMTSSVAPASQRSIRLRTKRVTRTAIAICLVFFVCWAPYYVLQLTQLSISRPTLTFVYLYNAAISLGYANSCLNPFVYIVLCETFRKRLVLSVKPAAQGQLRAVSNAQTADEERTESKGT
Method: (§1) The aequorin bioluminescence assay can be used to measure the activity of G protein-coupled receptors that couple through the Gα protein subunit family consisting of Gq and G11. Such coupling leads to phospholipase C activation, intracellular calcium mobilization and protein kinase C activation.
(§2) Following approximately 40 hours of expression the apo-aequorin in the cells was charged for 4 hours with coelenterazine (10 μM) under reducing conditions (300 μM reduced glutathione) in ECB buffer (140 mM NaCl, 20 mM KCl, 20 mM HEPES-NaOH [pH=7.4], 5 mM glucose, 1 mM MgCl2, 1 mM CaCl2, 0.1 mg/ml bovine serum albumin).
(§3) The cells were harvested, washed once in ECB medium and resuspended to 500,000 cells/ml. 100 μl of cell suspension (corresponding to 5×10^4 cells) was then injected into the test plate containing MCH or MCH analogs, and the integrated light emission was recorded over 30 seconds, in 0.5 second units. 20 μL of lysis buffer (0.1% final Triton X-100 concentration) was then injected and the integrated light emission recorded over 10 seconds, in 0.5 second units. The “fractional response” values for each well were calculated by taking the ratio of the integrated response to the initial challenge to the total integrated luminescence including the Triton X-100 lysis response.

human MCH-R2 = human MCH-R2 (Homo sapiens, UniProt Q969V1); test: Aequorin bioluminescence functional assay, MCH-2R; details: for EC50: MCH-2R EC50 (nM); for EC50 / MCH-2R Activation %: aequorin functional assay; for MCH-2R Activation %: % Activation at 10 μM; for selective activity at MCH-2R over MCH-1R: greater binding and/or activation at MCH-2R than at MCH-1R
human MCH-R2, sequence (Q969V1 whole entry): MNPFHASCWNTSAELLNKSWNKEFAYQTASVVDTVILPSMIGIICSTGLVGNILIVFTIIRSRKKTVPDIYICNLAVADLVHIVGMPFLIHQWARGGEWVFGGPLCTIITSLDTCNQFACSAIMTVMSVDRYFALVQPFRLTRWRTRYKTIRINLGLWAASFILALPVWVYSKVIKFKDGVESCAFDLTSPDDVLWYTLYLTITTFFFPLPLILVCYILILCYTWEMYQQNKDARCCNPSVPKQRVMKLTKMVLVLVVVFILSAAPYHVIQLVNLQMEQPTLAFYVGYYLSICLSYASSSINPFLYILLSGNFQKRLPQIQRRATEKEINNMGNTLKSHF
Method: as §1, §2, §3

[1] = Table 1, inhibition of [125I]-human MCH (Phe13, Tyr19) binding

human MCH-2R, sequence (Q969V1 whole entry): as above

SMILES | MCH-1R Activation % (human MCH-1R; Table 3) [%] | EC50 (human MCH-R2; Table 1, 293-AEQ17 cells) [nM] | MCH-2R Activation % (human MCH-R2; Table 3) [%] | EC50 (human MCH-1R) [nM] | MCH-1R Activation % (human MCH-1R; Table 1) [%] | selective activity at MCH-2R over MCH-1R (human MCH-R2) | MCH-2R Activation % (human MCH-R2; Table 1) [%] | other results
CSCC[C@@H]1NC(=O)[C@@H](NC(=O)[C@H](CCCNC(=N)N)NC(=O)[C@H](CC(C)C)NC(=O)[C@H](CCSC)NC(=O)[C@H](CC(=O)O)NC(=O)[C@H](Cc2ccccc2)NC(=O)[C@@H](N)CC(=O)O)CSSC[C@@H](C(=O)N[C@@H](Cc2c[nH]c3ccccc23)C(=O)N[C@@H](CCC(N)=O)C(=O)N[C@H](C(=O)O)C(C)C)NC(=O)[C@@H]2CCCN2C(=O)[C@H](CCCNC(=N)N)NC(=O)[C@H](Cc2ccc(O)cc2)NC(=O)[C@H](C(C)C)NC(=O)[C@H](CCCNC(=N)N)NC(=O)CNC(=O)[C@H](CC(C)C)NC1=O [compound 1] | 100 | 30.7 | 100 |  |  |  |  | IC50 (human MCH-2R; [1]): 0.5 nM; IC50 (human MCH-2R; Table 2): 0.5 nM; IC50 (human MCH-2R; Table 3): 0.9 nM; MCH-1R Activation % (human MCH-1R; Table 2): 100%; MCH-2R Activation % (human MCH-R2; Table 2): 100%
CSCC[C@@H]1NC(=O)[C@@H](NC(=O)[C@H](CCCNC(=N)N)NC(C)=O)CSSC[C@@H](C(N)=O)NC(=O)[C@@H]2CCCN2C(=O)[C@H](CCCNC(=N)N)NC(=O)[C@H](Cc2ccc(O)cc2)NC(=O)[C@H](C(C)C)NC(=O)[C@H](CCCNC(=N)N)NC(=O)[C@@H](CC2CCCCC2)NC(=O)[C@H](CC(C)C)NC1=O [compound 16] |  |  |  | > 10000 | 0.1 | selectively active |  | 
CSCC[C@@H]1NC(=O)[C@@H](NC(=O)[C@H](CCCNC(=N)N)NC(C)=O)CSSC[C@@H](C(N)=O)NC(=O)[C@@H]2CCCN2C(=O)[C@H](CCCNC(=N)N)NC(=O)[C@H](Cc2ccc(O)cc2)NC(=O)[C@H](C(C)C)NC(=O)[C@H](CCCNC(=N)N)NC(=O)[C@@H](Cc2ccccc2)NC(=O)[C@H](CC(C)C)NC1=O [compound 17] |  | 25 |  | > 10000 | 5 | selectively active | 102 | 
CSCC[C@@H]1NC(=O)[C@@H](NC(=O)[C@H](CCCNC(=N)N)NC(C)=O)CSSC[C@@H](C(N)=O)NC(=O)[C@@H]2CCCN2C(=O)[C@H](CCCNC(=N)N)NC(=O)[C@H](Cc2ccc(O)cc2)NC(=O)[C@H](C(C)C)NC(=O)[C@H](CCCNC(=N)N)NC(=O)[C@@H](CC(N)=O)NC(=O)[C@H](CC(C)C)NC1=O [compound 18] |  | 24 |  |  | 39 | selectively active | 106 | IC50 (human MCH-2R; [1]): 2.3 nM
CSCC[C@@H]1NC(=O)[C@@H](NC(=O)[C@H](CCCNC(=N)N)NC(C)=O)CSSC[C@@H](C(N)=O)NC(=O)[C@@H]2CCCN2C(=O)[C@H](CCCNC(=N)N)NC(=O)[C@H](Cc2ccc(O)cc2)NC(=O)[C@H](C(C)C)NC(=O)[C@H](CCCCNC(=N)N)NC(=O)CNC(=O)[C@H](CC(C)C)NC1=O [compound 24] |  | > 10000 |  |  | 72 |  | 43 | 
CSCC[C@@H]1NC(=O)[C@@H](NC(=O)[C@H](CCCNC(=N)N)NC(C)=O)CSSC[C@@H](C(N)=O)NC(=O)[C@@H]2CCCN2C(=O)[C@H](CCCNC(=N)N)NC(=O)[C@H](Cc2ccc(O)cc2)NC(=O)[C@H](C(C)C)NC(=O)[C@H](CCCNC(=N)N[N+](=O)[O-])NC(=O)CNC(=O)[C@H](CC(C)C)NC1=O [compound 25] |  | > 10000 |  | > 1000 |  | selectively active | 39 | 
CCCC[C@@H]1NC(=O)CNC(=O)[C@H](CC(C)C)NC(=O)[C@H](CCSC)NC(=O)[C@@H](NC(=O)[C@H](CCCNC(=N)N)NC(C)=O)CSSC[C@@H](C(N)=O)NC(=O)[C@@H]2CCCN2C(=O)[C@H](CCCNC(=N)N)NC(=O)[C@H](Cc2ccc(O)cc2)NC(=O)[C@H](C(C)C)NC1=O [compound 26] |  |  |  | > 1000 |  | selectively active | 34 | IC50 (human MCH-2R; [1]): 9 nM
CC(=O)N[C@@H](CCCNC(=N)N)C(=O)N[C@H]1CSSC[C@@H](C(N)=O)NC(=O)[C@@H]2CCCN2C(=O)[C@H](CCCNC(=N)N)NC(=O)[C@H](Cc2ccc(O)cc2)NC(=O)[C@H](C(C)C)NC(=O)[C@H](CCCCNC(=N)N)NC(=O)[C@@H](C)NC(=O)[C@H](CC(C)C)NC(=O)[C@H](C)NC1=O [compound 38] |  |  |  | > 10000 | 20 |  | 49 | 
CSCC[C@@H]1NC(=O)[C@@H](NC(=O)[C@H](CCCNC(=N)N)NC(=O)[C@H](CC(C)C)NC(=O)[C@H](CCSC)NC(=O)[C@H](CC(=O)O)NC(=O)[C@H](Cc2ccccc2)NC(=O)[C@H](C)N)CSSC[C@@H](C(=O)N[C@@H](Cc2c[nH]c3ccccc23)C(=O)N[C@@H](CCC(N)=O)C(=O)N[C@H](C(=O)O)C(C)C)NC(=O)[C@@H]2CCCN2C(=O)[C@H](CCCNC(=N)N)NC(=O)[C@H](Cc2ccc(O)cc2)NC(=O)[C@H](C(C)C)NC(=O)[C@H](CCCNC(=N)N)NC(=O)CNC(=O)[C@H](CC(C)C)NC1=O [compound 41] (H-AFDMLRCMLGRVYRPCWQV-OH; disulfide 7-16; N-terminus and C-terminus assumed) | 96 |  | 96 |  |  |  |  | 
CSCC[C@H](NC(=O)[C@H](CC(=O)O)NC(=O)[C@H](C)NC(=O)[C@@H](N)CC(=O)O)C(=O)N[C@@H](CC(C)C)C(=O)N[C@@H](CCCNC(=N)N)C(=O)N[C@H]1CSSC[C@@H](C(=O)N[C@@H](Cc2c[nH]c3ccccc23)C(=O)N[C@@H](CCC(N)=O)C(=O)N[C@H](C(=O)O)C(C)C)NC(=O)[C@@H]2CCCN2C(=O)[C@H](CCCNC(=N)N)NC(=O)[C@H](Cc2ccc(O)cc2)NC(=O)[C@H](C(C)C)NC(=O)[C@H](CCCNC(=N)N)NC(=O)CNC(=O)[C@H](CC(C)C)NC(=O)[C@H](CCSC)NC1=O [compound 42] (H-DADMLRCMLGRVYRPCWQV-OH; disulfide 7-16; N-terminus and C-terminus assumed) | 97 |  | 102 |  |  |  |  | 
CSCC[C@@H]1NC(=O)[C@@H](NC(=O)[C@H](C)NC(=O)[C@H](CC(C)C)NC(=O)[C@H](CCSC)NC(=O)[C@H](CC(=O)O)NC(=O)[C@H](Cc2ccccc2)NC(=O)[C@@H](N)CC(=O)O)CSSC[C@@H](C(=O)N[C@@H](Cc2c[nH]c3ccccc23)C(=O)N[C@@H](CCC(N)=O)C(=O)N[C@H](C(=O)O)C(C)C)NC(=O)[C@@H]2CCCN2C(=O)[C@H](CCCNC(=N)N)NC(=O)[C@H](Cc2ccc(O)cc2)NC(=O)[C@H](C(C)C)NC(=O)[C@H](CCCNC(=N)N)NC(=O)CNC(=O)[C@H](CC(C)C)NC1=O [compound 46] (H-DFDMLACMLGRVYRPCWQV-OH; disulfide 7-16; N-terminus and C-terminus assumed) | 81 |  | 76 |  |  |  |  | 
CSCC[C@@H]1NC(=O)[C@@H](NC(=O)[C@H](CCCNC(=N)N)NC(=O)[C@H](CC(C)C)NC(=O)[C@H](CCSC)NC(=O)[C@H](CC(=O)O)NC(=O)[C@H](Cc2ccccc2)NC(=O)[C@@H](N)CC(=O)O)CSSC[C@@H](C(=O)N[C@@H](Cc2c[nH]c3ccccc23)C(=O)N[C@@H](CCC(N)=O)C(=O)N[C@H](C(=O)O)C(C)C)NC(=O)[C@@H]2CCCN2C(=O)[C@H](CCCNC(=N)N)NC(=O)[C@H](Cc2ccc(O)cc2)NC(=O)[C@H](C(C)C)NC(=O)[C@H](C)NC(=O)CNC(=O)[C@H](CC(C)C)NC1=O [compound 49] (H-DFDMLRCMLGAVYRPCWQV-OH; disulfide 7-16; N-terminus and C-terminus assumed) | 24 |  |  |  |  |  |  | EC50 (human MCH-R2; Table 3): > 1000 nM
CSCC[C@@H]1NC(=O)[C@@H](NC(=O)[C@H](CCCNC(=N)N)NC(=O)[C@H](CC(C)C)NC(=O)[C@H](CCSC)NC(=O)[C@H](CC(=O)O)NC(=O)[C@H](Cc2ccccc2)NC(=O)[C@@H](N)CC(=O)O)CSSC[C@@H](C(=O)N[C@@H](Cc2c[nH]c3ccccc23)C(=O)N[C@@H](CCC(N)=O)C(=O)N[C@H](C(=O)O)C(C)C)NC(=O)[C@@H]2CCCN2C(=O)[C@H](CCCNC(=N)N)NC(=O)[C@H](C)NC(=O)[C@H](C(C)C)NC(=O)[C@H](CCCNC(=N)N)NC(=O)CNC(=O)[C@H](CC(C)C)NC1=O [compound 51] (H-DFDMLRCMLGRVARPCWQV-OH; disulfide 7-16; N-terminus and C-terminus assumed) | 20 |  |  |  |  |  |  | EC50 (human MCH-R2; Table 3): > 1000 nM
CSCC[C@@H]1NC(=O)[C@@H](NC(=O)[C@H](CCCNC(=N)N)NC(=O)[C@H](CC(C)C)NC(=O)[C@H](CCSC)NC(=O)[C@H](CC(=O)O)NC(=O)[C@H](Cc2ccccc2)NC(=O)[C@@H](N)CC(=O)O)CSSC[C@@H](C(=O)N[C@@H](C)C(=O)N[C@@H](CCC(N)=O)C(=O)N[C@H](C(=O)O)C(C)C)NC(=O)[C@@H]2CCCN2C(=O)[C@H](CCCNC(=N)N)NC(=O)[C@H](Cc2ccc(O)cc2)NC(=O)[C@H](C(C)C)NC(=O)[C@H](CCCNC(=N)N)NC(=O)CNC(=O)[C@H](CC(C)C)NC1=O [compound 54] (H-DFDMLRCMLGRVYRPCAQV-OH; disulfide 7-16; N-terminus and C-terminus assumed) | 100 |  | 95 |  |  |  |  | 
CSCC[C@@H]1NC(=O)[C@@H](NC(=O)[C@H](CCCNC(=N)N)NC(=O)[C@H](CC(C)C)NC(=O)[C@H](CCSC)NC(=O)[C@H](CC(=O)O)NC(=O)[C@H](Cc2ccccc2)NC(=O)[C@@H](N)CC(=O)O)CSSC[C@@H](C(=O)N[C@@H](Cc2c[nH]c3ccccc23)C(=O)N[C@@H](CCC(N)=O)C(=O)N[C@@H](C)C(=O)O)NC(=O)[C@@H]2CCCN2C(=O)[C@H](CCCNC(=N)N)NC(=O)[C@H](Cc2ccc(O)cc2)NC(=O)[C@H](C(C)C)NC(=O)[C@H](CCCNC(=N)N)NC(=O)CNC(=O)[C@H](CC(C)C)NC1=O [compound 56] (H-DFDMLRCMLGRVYRPCWQA-OH; disulfide 7-16; N-terminus and C-terminus assumed) | 100 |  | 99 |  |  |  |  | 
